21 compounds from patent US20160002217A1, “FUNGICIDAL 3--OXADIAZOLONE DERIVATIVES” (BAYER CROPSCIENCE AG, priority 2013, published 2016) can be followed below.

Where two headings read alike, the source gives them in different places. Marks after values point to notes of the source that are not given here.

Data set [1] is described as follows: Measurement of log P values by HPLC on reversed phase columns (EEC directive 79/831 Annex V.A8). The settings on record: for chromatographic logP: pH 2.7.
The conditions of data set [2]: pH 2.7.
The test system of data set [3] is Phytophthora infestans. It is filed as in vivo. The settings on record: tomato plants, preventive spray, 500 ppm of active ingredient, evaluated 5 days after inoculation.

With `CC(C)(C)OC(=O)Nc1cccc(CON=C(C#N)c2cccnc2)n1` [Example IV-07, tert-butyl {6-[({[cyano(pyridin-3-yl)methylene]amino}oxy)methyl]pyridin-2-yl}carbamate], the chromatographic logP in data set [1] turned out to be 3.19.

`C#CCCOC(=O)Nc1cccc(CON=C(c2ccccn2)c2nc(=O)on2CC)n1` [Example 19]: the LogP in data set [1] (Table 1, compounds of formula (I), method [a]: LC-MS at pH 2.7, 0.1% formic acid in water / acetonitrile gradient) was 2.35^[a].

On to `Cn1oc(=O)nc1/C(=N\OCc1cccc(N)n1)c1ccccn1` [Example 9, 3-[(Z)-{[(6-aminopyridin-2-yl)methoxy]imino}(pyridine-2-yl)methyl]-2-methyl-1,2,4-oxadiazol-5(2H)-one], for which the chromatographic logP in data set [1] was determined as 0.41. `CCCCCOC(=O)Nc1cccc(CON=C(c2cccnc2)c2noc(=O)n2C)n1` [Example 49]: in data set [2], the LogP is 3.37^[a]. In addition, the “% efficacy” value in data set [3] was found to be 99%.

Take `CCCC(C)C(=O)Nc1nc(CON=C(c2ccsc2)c2noc(=O)n2C)cs1` (stereo not drawn) [Example 71]: the LogP in data set [2] was 3.39^[a]. Moreover, the “% efficacy” value in data set [3] stood at 100%. In the same order, the values of `CCCCCC(=O)Nc1cccc(CON=C(c2cccnc2)c2nc(=O)on2C)n1` [Example 63] are 2.39^[a] and 75%. As to `CCCCCC(=O)Nc1cccc(CON=C(c2ccccn2)c2noc(=O)n2C)n1` [Example 4], the LogP in data set [2] is 3.13^[a]. Besides, in data set [3], the “% efficacy” value is 88%. For `CCCCOC(=O)Nc1cccc(CON=C(c2ncccn2)c2noc(=O)n2C)n1` [Example 53], the LogP in data set [2] is 2.68^[a]. For the same compound, the “% efficacy” value in data set [3] was determined as 85%. In the same order, the values of `CCCCCOC(=O)Nc1cccc(CON=C(c2ncccn2)c2noc(=O)n2C)n1` [Example 52] are 3.06^[a] and 88%. In the same order, the values of `CCCCCOC(=O)Nc1cccc(CON=C(c2cccnc2)c2nc(=O)on2C)n1` [Example 55] are 2.84^[a] and 92%. In the case of `Cn1oc(=O)nc1C(=NOCc1cccc(NC(=O)OC(C)(C)C)n1)c1ccncc1` [Example 37], the LogP in data set [2] was 2.21^[a]. Besides, the “% efficacy” value in data set [3] is reported as 80%. On the same counts, the results for `CCCCC(=O)Nc1cccc(CON=C(c2cccnc2)c2noc(=O)n2C)n1` [Example 59] are 2.51^[a] and 78%.

With `CCCCCC(=O)Nc1cccc(CON=C(c2ncccn2)c2noc(=O)n2C)n1` [Example 60], the LogP in data set [2] is 2.61^[a]. Moreover, the “% efficacy” value in data set [3] was found to be 90%. In the same order, the values of `CCCCOC(=O)Nc1cccc(CON=C(c2cccnc2)c2nc(=O)on2C)n1` [Example 57] are 2.47^[a] and 95%.

Regarding `CCCCOC(=O)Nc1cccc(CON=C(c2cccnc2)c2noc(=O)n2C)n1` [Example 50], the LogP in data set [2] was 2.98^[a]. For the same compound, the “% efficacy” value in data set [3] is given as 100%. In the same order, the values of `C#CCCOC(=O)Nc1cccc(CON=C(c2ccccn2)c2noc(=O)n2C)n1` [Example 7] are 2.56^[a] and 85%. On the same counts, the results for `Cn1c(C(=NOCc2csc(NC(=O)COc3ccccc3)n2)c2ccsc2)noc1=O` [Example 67] are 3.22^[a] and 98%. On the same counts, the results for `CCCCOC(=O)Nc1cccc(CON=C(c2ccccn2)c2noc(=O)n2C)n1` [Example 3] are 3.25^[a] and 100%. As to `CC(Oc1ccccc1)C(=O)Nc1nc(CON=C(c2ccsc2)c2noc(=O)n2C)cs1` (racemic) [Example 43], the LogP in data set [2] was 3.37^[a]. For the same compound, the “% efficacy” value in data set [3] is given as 98%. `C#CCCOC(=O)Nc1cccc(CON=C(c2cccnc2)c2noc(=O)n2C)n1` [Example 51]: the LogP in data set [2] was 2.32^[a]. The “% efficacy” value in data set [3] was 90%. On the same counts, the results for `Cn1c(C(=NOCc2cccc(NC(=O)OC(C)(C)C)n2)c2ccncc2)noc1=O` [Example 38] are 2.75^[a] and 100%.
